The values below come from patent US20080268044A1, “Novel Process and Formulations” (Glaxo Group Limited, priority 2005, published 2008).

A short description of this data set: Comparison of salt forms (solubility, stability). The data set is classed as physicochemical.

Regarding `Cc1cc(F)ccc1-c1nc(NC(CO)CO)nc2c1ccc(=O)n2-c1c(F)cccc1F` [sulphate, 8-(2,6-difluorophenyl)-4-(4-fluoro-2-methylphenyl)-2-{[2-hydroxy-1-(hydroxymethyl)ethyl]amino}pyrido[2,3-d]pyrimidin-7(8H)-one], the “stability of salt forms (comparison)” value is given as “less stable than the other salt forms”.
